This is an account of results in patent US10206909B2, “3-(1H-pyrrolo[2,3-B]pyridin-2-yl)-1H-pyrazolo[4,3-B]pyridines and therapeutic uses thereof” (Samumed, LLC, priority 2015, dated 2019).

The term EC50 denotes the concentration that produces a half-maximal response. Low values mean a more potent agent, high ones a less potent agent. Usually inhibition stands for the drop in the measured response relative to a control, in per cent.

The test system of assay [1] is Wnt activity (Sp5-Luc reporter, SW480 colon carcinoma cells). The assay is described as follows: Wnt activity screening assay: Sp5-Luc reporter gene assay in SW480 cells. The format is cell-based. The conditions noted are these: Homo sapiens; for EC50: SW480 cells, overnight incubation; for inhibition at 10 µM: given where EC50 >10 μM, SW480, read-out: percent inhibition at 10 μM. An excerpt: The screening assay for Wnt activity is described as follows. Reporter cell lines can be generated by stably transducing cancer cell lines (e.g., colon cancer) or primary cells (e.g., IEC-6 intestinal cells) with a lentiviral construct that includes a Wnt-responsive promoter driving expression of the firefly luciferase gene.
SW480 colon carcinoma cells were transduced with a lentiviral vector expressing luciferase with a human Sp5 promoter consisting of a sequence of eight TCF/LEF binding sites. SW480 cells stably expressing the Sp5-Luc reporter gene and a hygromycin resistance gene were selected by treatment with 150 μg/mL of hygromycin for 7 days. These stably transduced SW480 cells were expanded in cell culture and used for all further screening activities. Each compound was dissolved in DMSO as a 10 mM stock and used to prepare compound source plates. Serial dilution (1:3, 10-point dose-response curves starting from 10 μM) and compound transfer was performed using the ECHO 550 (Labcyte, Sunnyvale, Calif.) into 384-well white solid bottom assay plates (Greiner Bio-One) with appropriate DMSO backfill for a final DMSO concentration of 0.1%. For Sp5-Luc reporter gene assays, the cells were plated at 4,000 cells/well in 384-well plates with medium containing 1% fetal bovine serum and incubated overnight at 37° C. and 5% CO2. Following incubation, 20 μl of BrightGlo luminescence reagent (Promega) was added to each well of the 384-well assay plates. The plates were placed on an orbital shaker for 2 min and then luminescence was quantified using the Envision (Perkin Elmer) plate reader. Readings were normalized to DMSO only treated cells, and normalized activities were utilized for EC50 calculations using the dose-response log (inhibitor) vs. response -variable slope (four parameters) nonlinear regression feature available in GraphPad Prism 5.0 (or Dotmatics). For EC50 of >10 μM, the percent inhibition at 10 μM is provided.
(In a reporter assay the amount or activity of a reporter protein is the signal.)

Assay [2] concerns primary human fibroblasts derived from IPF patients (LL29 cells). The assay is described as follows: Inhibition of the fibrotic process: αSMA staining in TGF-β1 treated fibroblasts. Type of assay: cell-based. The conditions noted are these: Fibroblast; for EC50: 96 h, LL29 cells, TGF-β1 20 ng/mL, 4 days, % αSMA positive cells; for inhibition at 10 µM: given where EC50 >10 μM, LL29, αSMA, read-out: percent inhibition at 10 μM. The text has this:
Representative compounds were screened using primary human fibroblasts (derived from IPF patients) treated with TGF-β1 to determine their ability to inhibit the fibrotic process.
Human Fibroblast Cell Culture: Primary human fibroblasts derived from IPF patients (LL29 cells) [^1Xiaoqiu Liu, et. al., “Fibrotic Lung Fibroblasts Show Blunted Inhibition by cAMP Due to Deficient cAMP Response Element-Binding Protein Phosphorylation”, Journal of Pharmacology and Experimental Therapeutics (2005), 315(2), 678-687; ^2Watts, K. L., et. al., “RhoA signaling modulates cyclin D1 expression in human lung fibroblasts; implications for idiopathic pulmonary fibrosis”, Respiratory Research (2006), 7(1), 88] were obtained from American Type Culture Collection (ATCC) and expanded in F12 medium supplemented with 15% Fetal Bovine Serum and Penicillin/Streptomycin.
Compound Screening: Each compound was dissolved in DMSO as a 10 mM stock and used to prepare compound source plates. Serial dilution (1:2, 11-point dose-response curves from 10 μM to […]) and compound transfer was performed using the ECHO 550 (Labcyte, Sunnyvale, Calif.) into 384-well clear bottom assay plates (Greiner Bio-One) with appropriate DMSO backfill for a final DMSO concentration of 0.1%. LL29 cells are plated at 1,500 cells/well in 80 μL/well F12 medium supplemented with 1% Fetal Bovine Serum. One hour after addition of the cells, TGF-β1 (Peprotech; 20 ng/mL) was added to the plates to induce fibrosis (ref. 1 and 2 above). Wells treated with TGF-β1 and containing DMSO were used as controls. Cells were incubated at 37° C. and 5% CO2 for 4 days. Following incubation for 4 days, SYTOX green nucleic acid stain (Life Technologies [Thermo Fisher Scientific]) was added to the wells at a final concentration of 1 μM and incubated at room temperature for 30 min. Cells were then fixed using 4% formaldehyde (Electron Microscopy Sciences), washed 3 times with PBS followed by blocking and permeabilization using 3% Bovine Serum Albumin (BSA; Sigma) and 0.3% Triton X-100 (Sigma) in PBS. Cells were then stained with antibody specific to α-smooth muscle actin (αSMA; Abcam) (ref. 1 and 2 above) in 3% Bovine Serum Albumin (BSA; Sigma) and 0.3% Triton X-100 (Sigma) in PBS, and incubated overnight at 4° C. Cells were then washed 3 times with PBS, followed by incubation with Alexa Flor-647 conjugated secondary antibody (Life Technologies [Thermo Fisher Scientific]) and DAPI at room temperature for 1 hour. Cells were then washed 3 times with PBS and plates were sealed for imaging. αSMA staining was imaged by excitation at 630 nm and emission at 665 nm and quantified using the Compartmental Analysis program on the CellInsight CX5 (Thermo Scientific). Dead or apoptotic cells were excluded from analysis based on positive SYTOX green staining. % of total cells positive for αSMA were counted in each well and normalized to the average of 11 wells treated with TGF-β1 on the same plate using Dotmatics' Studies Software. The normalized averages (fold change over untreated) of 3 replicate wells for each compound concentration were used to create dose-responses curves and EC50 values were calculated using non-linear regression curve fit in the Dotmatics' Studies Software. For EC50 of >10 μM, the percent inhibition at 10 μM is provided.

For `c1cncc(-c2ccnc3[nH]c(-c4n[nH]c5ccc(-c6ccncc6)nc45)cc23)c1` [Compound 102, 3-(4-(Pyridin-3-yl)-1H-pyrrolo[2,3-b]pyridin-2-yl)-5-(pyridin-4-yl)-1H-pyrazolo[4,3-b]pyridine], the EC50 in assay [1] and in assay [2] was more than 10 µM throughout. For the same molecule, the inhibition at 10 µM in assay [1] is 9.5%; in assay [2], 0%.

For `FC1(F)CCN(Cc2cncc(-c3ccc4[nH]nc(-c5cc6c(-c7cccnc7)ccnc6[nH]5)c4n3)c2)C1` [Compound 110, 5-(5-((3,3-Difluoropyrrolidin-1-yl)methyl)pyridin-3-yl)-3-(4-(pyridin-3-yl)-1H-pyrrolo[2,3-b]pyridin-2-yl)-1H-pyrazolo[4,3-b]pyridine], the concentration for a half-maximal effect (EC50) in assay [1] is more than 10 µM; in assay [2], 0.213 µM. In assay [1], the inhibition at 10 µM turned out to be 47.7%.

Consider `Nc1cncc(-c2ccc3[nH]nc(-c4cc5c(-c6ccncc6)ccnc5[nH]4)c3n2)c1` [Compound 115, 5-(3-(4-(Pyridin-4-yl)-1H-pyrrolo[2,3-b]pyridin-2-yl)-1H-pyrazolo[4,3-b]pyridin-5-yl)pyridin-3-amine], for which, in assay [1], the half-maximal effective concentration (EC50) is more than 10 µM and the inhibition at 10 µM was determined as 24.4%. In addition, in assay [2], the concentration for a half-maximal effect (EC50) is more than 10 µM and the inhibition at 10 µM is 28.8%.

As for `Cc1ccncc1-c1ccc2[nH]nc(-c3cc4c(-c5ccncc5)ccnc4[nH]3)c2n1` [Compound 117, 5-(4-Methylpyridin-3-yl)-3-(4-(pyridin-4-yl)-1H-pyrrolo[2,3-b]pyridin-2-yl)-1H-pyrazolo[4,3-b]pyridine], in assay [1], the EC50 was more than 10 µM and the inhibition at 10 µM amounted to 11.8%. The same molecule gave an EC50 in assay [2] of 0.6 µM.

`c1cc(-c2ccnc3[nH]c(-c4n[nH]c5ccc(-c6cncc(CN7CCCCC7)c6)nc45)cc23)ccn1` [Compound 127, 5-(5-(Piperidin-1-ylmethyl)pyridin-3-yl)-3-(4-(pyridin-4-yl)-1H-pyrrolo[2,3-b]pyridin-2-yl)-1H-pyrazolo[4,3-b]pyridine]: in assay [1], the EC50 is more than 10 µM and the inhibition at 10 µM is 5.8%. In assay [2], the half-maximal effective concentration (EC50) is more than 10 µM and the inhibition at 10 µM is 0%.

Regarding `c1cc(-c2ccnc3[nH]c(-c4n[nH]c5ccc(-c6cncc(CNCC7CCCC7)c6)nc45)cc23)ccn1` [Compound 137, 1-Cyclopentyl-N-((5-(3-(4-(pyridin-4-yl)-1H-pyrrolo[2,3-b]pyridin-2-yl)-1H-pyrazolo[4,3-b]pyridin-5-yl)pyridin-3-yl)methyl)methanamine], in assay [1], the EC50 was more than 10 µM and the inhibition at 10 µM is 19.5%. Besides, in assay [2], the EC50 is more than 10 µM and the inhibition at 10 µM worked out at 23.8%.

Turning to `Cc1ccncc1-c1ccc2[nH]nc(-c3cc4c(N5CCCCC5)ccnc4[nH]3)c2n1` [Compound 173, 5-(4-Methylpyridin-3-yl)-3-(4-(piperidin-1-yl)-1H-pyrrolo[2,3-b]pyridin-2-yl)-1H-pyrazolo[4,3-b]pyridine], the figures for the EC50 in assay [1] and in assay [2] were 2.36 µM and more than 10 µM, respectively. Moreover, the inhibition at 10 µM in assay [2] was determined as 10.6%.

For `CN(C)Cc1cncc(-c2ccc3[nH]nc(-c4cc5c(N6CCCCC6)ccnc5[nH]4)c3n2)c1` [Compound 181, N,N-Dimethyl-1-(5-(3-(4-(piperidin-1-yl)-1H-pyrrolo[2,3-b]pyridin-2-yl)-1H-pyrazolo[4,3-b]pyridin-5-yl)pyridin-3-yl)methanamine], in assay [1], the EC50 is more than 10 µM and the inhibition at 10 µM came out at 4.1%. A half-maximal response in assay [2] (EC50) required 7.78 µM.

For `c1cc(N2CCCCC2)c2cc(-c3n[nH]c4ccc(-c5cncc(CN6CCCCC6)c5)nc34)[nH]c2n1` [Compound 183, 3-(4-(Piperidin-1-yl)-1H-pyrrolo[2,3-b]pyridin-2-yl)-5-(5-(piperidin-1-ylmethyl)pyridin-3-yl)-1H-pyrazolo[4,3-b]pyridine], the half-maximal effective concentration (EC50) in assay [1] and in assay [2] was more than 10 µM throughout. In addition, the results for the inhibition at 10 µM in assay [1] and in assay [2] were 6.5% and 0%, respectively.

With `CCCCC(=O)Nc1cncc(-c2ccc3[nH]nc(-c4cc5c(N6CCCCC6)ccnc5[nH]4)c3n2)c1` [Compound 187, N-(5-(3-(4-(Piperidin-1-yl)-1H-pyrrolo[2,3-b]pyridin-2-yl)-1H-pyrazolo[4,3-b]pyridin-5-yl)pyridin-3-yl)pentanamide], in assay [1], the concentration giving a half-maximal response (EC50) was more than 10 µM and the inhibition at 10 µM worked out at 14.3%. Besides, the EC50 in assay [2] stood at 4.88 µM.

With `FC1(F)CCN(Cc2cncc(-c3ccc4[nH]nc(-c5cc6c(N7CCCCC7)ccnc6[nH]5)c4n3)c2)C1` [Compound 194, 5-(5-((3,3-Difluoropyrrolidin-1-yl)methyl)pyridin-3-yl)-3-(4-(piperidin-1-yl)-1H-pyrrolo[2,3-b]pyridin-2-yl)-1H-pyrazolo[4,3-b]pyridine], the EC50 in assay [1] was determined as 5.27 µM; in assay [2] it was 2.55 µM.

On to `c1ncc(-c2ccc3[nH]nc(-c4cc5c(N6CCCCC6)ccnc5[nH]4)c3n2)cn1` [Compound 195, 3-(4-(Piperidin-1-yl)-1H-pyrrolo[2,3-b]pyridin-2-yl)-5-(pyrimidin-5-yl)-1H-pyrazolo[4,3-b]pyridine], for which the EC50 was more than 10 µM in assay [1] and 2.04 µM in assay [2]. Also, in assay [1], the inhibition at 10 µM worked out at 12.6%.

Turning to `c1ccc(-c2ccc3[nH]nc(-c4cc5c(N6CCCCC6)ccnc5[nH]4)c3n2)nc1` [Compound 196, 3-(4-(Piperidin-1-yl)-1H-pyrrolo[2,3-b]pyridin-2-yl)-5-(pyridin-2-yl)-1H-pyrazolo[4,3-b]pyridine], the results for the EC50 in assay [1] and in assay [2] were more than 10 µM and 2.05 µM, respectively. Also, the inhibition at 10 µM in assay [1] worked out at 9.8%.

Regarding `CC(C)CC(=O)Nc1cncc(-c2ccc3[nH]nc(-c4cc5c(N6CCN(C)CC6)ccnc5[nH]4)c3n2)c1` [Compound 226, 3-Methyl-N-(5-(3-(4-(4-methylpiperazin-1-yl)-1H-pyrrolo[2,3-b]pyridin-2-yl)-1H-pyrazolo[4,3-b]pyridin-5-yl)pyridin-3-yl)butanamide], the figures for the EC50 in assay [1] and in assay [2] were 3.45 µM and 1.76 µM, respectively.

For `CN1CCN(c2ccnc3[nH]c(-c4n[nH]c5ccc(-c6cncc(NC(=O)C(C)(C)C)c6)nc45)cc23)CC1` [Compound 232, N-(5-(3-(4-(4-Methylpiperazin-1-yl)-1H-pyrrolo[2,3-b]pyridin-2-yl)-1H-pyrazolo[4,3-b]pyridin-5-yl)pyridin-3-yl)pivalamide], the concentration for a half-maximal effect (EC50) in assay [1] stood at 3.83 µM; in assay [2], 0.795 µM.
